Measured values as given in patent publication US4256632A, “Novel derivatives of daunomycin” (Yeda Research and Development Co. Ltd., priority 1978, dated 1981).
“Also recorded” adds a separate entry of the source.

Tested on: EL4 lymphoma
Test: Repeated treatments of mice bearing ip EL4 lymphoma
Type: in vivo, C57BL/6 mice
Set-up: Median survival time: unit not given here
Details: for Median survival time: mice that died of the tumor; for Antitumor (curing) effect in words: injected intraperitoneally at different intervals after tumor cell innoculation; for Relative effectivity among derivatives: comparison in words
Procedure: Four to six weeks old C57BL/6 mice were innoculated with the ascite lymphoma tumor EL4.BU. Daunomycin and its derivatives were injected intraperitoneally at different intervals after tumor cell innoculation.
Some of the mice were totally cured, with no physical manifestation of any side effects of the tested derivatized daunomycin compounds.
10^6 EL4 lymphoma cells were innoculated ip into C57BL/6 males. Drug
administration started 2 days later.
*Refers to the group of mice that died of the tumor.

**Q.** Which “Long time survivors (over 60 days)” value (250 μg/mouse, 8 injections ip) does the source give for `COc1cccc2c1C(=O)c1c(O)c3c(c(O)c1C2=O)C[C@@](O)(C(C)=O)C[C@@H]3O[C@H]1C[C@H](NC(=O)[C@H](CCCCN)NC(=O)[C@H](CCCCN)NC(=O)[C@@H](N)CCCCN)[C@H](O)[C@H](C)O1` [(Lys)3 -DM, (lysyl)3 -daunomycin] here?
**A.** Its value is 6.

**Q.** What about the “Toxic deaths/No. mice treated” value (250 μg/mouse, 8 injections ip) of the same compound?
**A.** The value was 1/8.

**Q.** What about the Median survival time (250 μg/mouse, 8 injections ip) of the same compound?
**A.** Its Median survival time is 25.

**Q.** And the “Antitumor (curing) effect in words” value?
**A.** The value was “complete cure, or a significantly prolonged life span with no apparent toxic effects”.

**Q.** With `COc1cccc2c1C(=O)c1c(O)c3c(c(O)c1C2=O)CC(O)(C(C)=O)CC3OC1CC(NC(=O)C(CCCNC(=N)N)NC(=O)C(N)CCCNC(=N)N)C(O)C(C)O1` (centres unmarked) [(arginyl)2 -daunomycin, arginyl-arginyl-daunomycin] as the compound, how does the “Antitumor (curing) effect in words” value read?
**A.** The value was “complete cure, or a significantly prolonged life span with no apparent toxic effects”.

**Q.** For `COc1cccc2c1C(=O)c1c(O)c3c(c(O)c1C2=O)C[C@@](O)(C(C)=O)C[C@@H]3O[C@H]1C[C@H](NC(=O)C(N)Cc2ccc(O)c(O)c2)[C@H](O)[C@H](C)O1` (some centres unmarked) [DOPA-DM, dihydroxyphenylalanyl-daunomycin], which “Long time survivors (over 60 days)” value (240 μg/mouse, 8 injections ip) is on record?
**A.** The value was 3.

**Q.** What about the “Toxic deaths/No. mice treated” value (240 μg/mouse, 8 injections ip) of the same compound?
**A.** Its value is 0/4.

**Q.** What about the Median survival time (240 μg/mouse, 8 injections ip) of the same compound?
**A.** The Median survival time was 28.

**Q.** `COc1cccc2c1C(=O)c1c(O)c3c(c(O)c1C2=O)C[C@@](O)(C(C)=O)C[C@@H]3O[C@H]1C[C@H](N)[C@H](O)[C@H](C)O1` [Daunomycin, daunomycin] was tested. Which “Long time survivors (over 60 days)” value (20 μg/mouse, 5 injections ip) did it give?
**A.** The value was 1.

**Q.** And the “Toxic deaths/No. mice treated” value (20 μg/mouse, 5 injections ip)?
**A.** The value was 1/8.

**Q.** And the Median survival time (20 μg/mouse, 5 injections ip)?
**A.** Its Median survival time is 17.

**Q.** What about the “Long time survivors (over 60 days)” value (20 μg/mouse, 6 injections ip) of the same compound?
**A.** The value was 0.

**Q.** What about the “Toxic deaths/No. mice treated” value (20 μg/mouse, 6 injections ip) of the same compound?
**A.** The value was 4/8.

**Q.** And the Median survival time (20 μg/mouse, 6 injections ip)?
**A.** Its Median survival time is 15.

**Q.** And the “Long time survivors (over 60 days)” value (25 μg/mouse, 4 injections ip)?
**A.** Its value is 0.

**Q.** And the “Toxic deaths/No. mice treated” value (25 μg/mouse, 4 injections ip)?
**A.** Its value is 2/8.

**Q.** And the Median survival time (25 μg/mouse, 4 injections ip)?
**A.** The Median survival time was 14.5.

**Q.** And the “Long time survivors (over 60 days)” value (25 μg/mouse, 5 injections ip)?
**A.** Its value is 1.

**Q.** What about the “Toxic deaths/No. mice treated” value (25 μg/mouse, 5 injections ip) of the same compound?
**A.** The value was 2/8.

**Q.** And the Median survival time (25 μg/mouse, 5 injections ip)?
**A.** The Median survival time was 24.5.

**Q.** What about the “Long time survivors (over 60 days)” value (30 μg/mouse, 4 injections ip) of the same compound?
**A.** The value was 2.

**Q.** What about the “Toxic deaths/No. mice treated” value (30 μg/mouse, 4 injections ip) of the same compound?
**A.** Its value is 4/8.

**Q.** And the Median survival time (30 μg/mouse, 4 injections ip)?
**A.** The Median survival time was 25.

**Q.** And the “Long time survivors (over 60 days)” value (40 μg/mouse, 1 injection ip)?
**A.** Its value is 0.

**Q.** And the “Toxic deaths/No. mice treated” value (40 μg/mouse, 1 injection ip)?
**A.** The value was 2/8.

**Q.** And the Median survival time (40 μg/mouse, 1 injection ip)?
**A.** Its Median survival time is 19.

**Q.** What about the “Long time survivors (over 60 days)” value (40 μg/mouse, 4 injections ip) of the same compound?
**A.** The value was 0.

**Q.** And the “Toxic deaths/No. mice treated” value (40 μg/mouse, 4 injections ip)?
**A.** Its value is 4/8.

**Q.** What about the Median survival time (40 μg/mouse, 4 injections ip) of the same compound?
**A.** Its Median survival time is 18.

**Q.** What about the “Long time survivors (over 60 days)” value (50 μg/mouse, 2 injections ip) of the same compound?
**A.** The value was 0.

**Q.** What about the “Toxic deaths/No. mice treated” value (50 μg/mouse, 2 injections ip) of the same compound?
**A.** Its value is 2/8.

**Q.** And the Median survival time (50 μg/mouse, 2 injections ip)?
**A.** The Median survival time was 19.

**Q.** What about the “Long time survivors (over 60 days)” value (60 μg/mouse, 1 injection ip) of the same compound?
**A.** The value was 0.

**Q.** What about the “Toxic deaths/No. mice treated” value (60 μg/mouse, 1 injection ip) of the same compound?
**A.** Its value is 6/8.

**Q.** What about the Median survival time (60 μg/mouse, 1 injection ip) of the same compound?
**A.** Its Median survival time is 18.

**Q.** And the “Long time survivors (over 60 days)” value (80 μg/mouse, 1 injection ip)?
**A.** Its value is 0.

**Q.** What about the “Toxic deaths/No. mice treated” value (80 μg/mouse, 1 injection ip) of the same compound?
**A.** The value was 8/8.

**Q.** And the Median survival time (80 μg/mouse, 1 injection ip)?
**A.** The Median survival time was 17.

**Q.** And the “Effects at high doses” value (doses exceeding 70 μg/mouse in a single injection, or lower doses in multiple injections)?
**A.** The value was “acute toxicity marked by a generally wasted appearance and death, to no efficient depression of the growing tumor”.

**Q.** What about the “Antitumor (curing) effect in words” value of the same compound?
**A.** The value was “no satisfactory curing effects; also recorded: very narrow border-zone between excessive toxicity and poor curative efficiency”.

**Q.** What does the source list for `COc1cccc2c1C(=O)c1c(O)c3c(c(O)c1C2=O)C[C@@](O)(C(C)=O)C[C@@H]3OC1CC(NC(=O)C(N)CCN)C(O)C(C)O1.[Cl-].[Na+]` (some centres unmarked) [Dbu-DM, diaminobutyryl-daunomycin]?
**A.** Long time survivors (over 60 days) (650 μg/mouse, 8 injections ip): 12; Toxic deaths/No. mice treated (650 μg/mouse, 8 injections ip): 0/14; Median survival time (650 μg/mouse, 8 injections ip): 31; Antitumor (curing) effect in words: complete cure, or a significantly prolonged life span with no apparent toxic effects

**Q.** Which “Antitumor (curing) effect in words” value does the source give for `COc1cccc2c1C(=O)c1c(O)c3c(c(O)c1C2=O)C[C@@](O)(C(C)=O)C[C@@H]3O[C@H]1C[C@H](NC(=O)[C@@H](N)Cc2cnc[nH]2)[C@H](O)[C@H](C)O1` [histidyl-daunomycin] here?
**A.** The value was “complete cure, or a significantly prolonged life span with no apparent toxic effects”.

**Q.** How did the “Long time survivors (over 60 days)” value (250 μg/mouse, 8 injections ip) turn out when (lysyl)2 -daunomycin [(Lys)2 -DM] was run?
**A.** Its value is 6.

**Q.** And the “Toxic deaths/No. mice treated” value (250 μg/mouse, 8 injections ip)?
**A.** Its value is 1/8.

**Q.** What about the Median survival time (250 μg/mouse, 8 injections ip) of the same compound?
**A.** Its Median survival time is 24.

**Q.** And the “Antitumor (curing) effect in words” value?
**A.** Its value is “complete cure, or a significantly prolonged life span with no apparent toxic effects”.

**Q.** (ornithyl)2 -daunomycin [(Orn)2 -DM] was tested. Which “Long time survivors (over 60 days)” value (300 μg/mouse, 8 injections ip) did it give?
**A.** Its value is 6.

**Q.** What about the “Toxic deaths/No. mice treated” value (300 μg/mouse, 8 injections ip) of the same compound?
**A.** The value was 1/8.

**Q.** What about the “Relative effectivity among derivatives” value of the same compound?
**A.** The value was “much more effective than with ornithine”.

**Q.** And the “Antitumor (curing) effect in words” value?
**A.** The value was “complete cure, or a significantly prolonged life span with no apparent toxic effects”.

**Q.** For “(ornithyl)n -daunomycin where n=2 to 5 [(Orn)5 -DM]”, which “Long time survivors (over 60 days)” value (300 μg/mouse, 8 injections ip) is on record?
**A.** The value was 2.

**Q.** And the “Toxic deaths/No. mice treated” value (300 μg/mouse, 8 injections ip)?
**A.** The value was 1/8.

**Q.** What about the Median survival time (300 μg/mouse, 8 injections ip) of the same compound?
**A.** The Median survival time was 38.

**Q.** For arginyl-daunomycin [Arg-DM], which “Long time survivors (over 60 days)” value (250 μg/mouse, 7 injections ip) is on record?
**A.** Its value is 3.

**Q.** And the “Toxic deaths/No. mice treated” value (250 μg/mouse, 7 injections ip)?
**A.** Its value is 0/4.

**Q.** What about the Median survival time (250 μg/mouse, 7 injections ip) of the same compound?
**A.** Its Median survival time is 35.

**Q.** What about the “Long time survivors (over 60 days)” value (400 μg/mouse, 6 injections ip) of the same compound?
**A.** Its value is 3.

**Q.** And the “Toxic deaths/No. mice treated” value (400 μg/mouse, 6 injections ip)?
**A.** Its value is 1/4.

**Q.** How did the “Long time survivors (over 60 days)” value (600 μg/mouse, 8 injections ip) turn out when aspartyl-lysyl-daunomycin [Asp-Lys-DM] was run?
**A.** Its value is 6.

**Q.** And the “Toxic deaths/No. mice treated” value (600 μg/mouse, 8 injections ip)?
**A.** The value was 0/8.

**Q.** And the Median survival time (600 μg/mouse, 8 injections ip)?
**A.** The Median survival time was 31.

**Q.** What about the “Relative effectivity among derivatives” value of the same compound?
**A.** The value was “more effective than aspartyl-daunomycin”.

**Q.** And the “Antitumor (curing) effect in words” value?
**A.** The value was “complete cure, or a significantly prolonged life span with no apparent toxic effects”.

**Q.** Which results are given for lysyl-daunomycin [Lys-DM]?
**A.** Long time survivors (over 60 days) (200 μg/mouse, 4 injections ip): 0; Toxic deaths/No. mice treated (200 μg/mouse, 4 injections ip): 0/8; Median survival time (200 μg/mouse, 4 injections ip): 28; Long time survivors (over 60 days) (250 μg/mouse, 8 injections ip): 5; Toxic deaths/No. mice treated (250 μg/mouse, 8 injections ip): 2/8; Median survival time (250 μg/mouse, 8 injections ip): 26; Antitumor (curing) effect in words: complete cure, or a significantly prolonged life span with no apparent toxic effects

**Q.** How did the “Relative effectivity among derivatives” value turn out when lysyl-leucyl-daunomycin was run?
**A.** Its value is “more effective than leucyl-daunomycin”.
